In patent US20240390369A1, “METHODS FOR DETERMINING RESPONSIVENESS TO TYK2 INHIBITORS” (Bristol-Myers Squibb Company, priority 2021, published 2024):

Test system: patients with psoriatic arthritis
Test: Phase 2 trial in psoriatic arthritis: PASI75 response at week 16
Type: in vivo, human
Details: for Odds Ratio for PASI75 response / Odds Ratio (OR) for PASI75 response / Interaction Term for PASI75 response (ratio of odds ratios): week 16
Method: In a double-blind Phase 2 trial, 203 patients with psoriatic arthritis were randomized into three groups: deucravacitinib 6 mg once daily (N=70), deucravacitinib 12 mg once daily (N=67), or placebo (N=66). All subjects had active psoriatic arthritis according to the Classification Criteria for Psoriatic Arthritis (CASPAR); for active disease, these criteria required ≥3 tender joint count, ≥3 swollen joint count, and a C-reactive protein level above 3 mg/L. Other inclusion criteria included the following: presence of at least one plaque psoriasis lesion, and prior treatment failure with a non-biologic disease modifying anti-rheumatic drug, a non-steroidal anti-inflammatory drug, or a steroid. With respect to treatment history, approximately 70% of subjects had not received prior treatment with a biologic and were biologic naïve, while up to 30% of subjects had failed or had been intolerant to one TNF-inhibitor (TNF=Tumor necrosis factor, also known as TNFα). Randomization was stratified by prior TNF-inhibitor use (experienced/naïve) and body weight (<90 kg and ≥90 kg).
Clinical measures included the Psoriasis […] (PASI) score for skin psoriasis, American College of Rheumatology 20 (ACR20) response, Psoriatic Arthritis Disease Activity Score (PASDAS), Health Assessment Questionnaire-Disability Index (HAQ-DI), and Disease Activity Score 28 CRP (DAS28). To evaluate the predictive value of different protein measurements for the clinical response to deucravacitinib, baseline protein concentrations for responders and non-responders, as defined by ACR20 or PASI75 at week 16, were compared for each arm (placebo, 6 mg deucravacitinib once-daily, and 12 mg deucravacitinib once-daily).
In addition, a logistic regression model was fit, to determine whether baseline disease score (dichotomized by the median baseline score, into baseline score high and baseline score low groups) was associated with response status. The model generated an odds ratio for each dosed arm versus placebo, in baseline score high and baseline score low groups.
Boxplots for baseline protein level by response were generated with a horizontal line indicating the median protein level at baseline. For each treatment arm, a two-sample t-test was performed to test whether mean baseline serum protein level was different in responders versus non-responders. A Wilcoxon rank sum test (Mann-Whitney U test) was also performed to evaluate the difference in median serum protein level between responders and non-responders. Further, barplots of ACR20 and PASI75 response rate at week 16 for each treatment arm were generated for all subjects (protein level high and protein level low subjects, dichotomized according to median baseline level). Line plots of ACR20 and PASI75 response rate over time for each treatment arm were generated for protein level high and protein level low groups. Logistic regression models were also fit to evaluate associations between baseline protein levels and clinical outcome.
For certain analyses described herein, patients were dichotomized by median values (e.g., of the proteins listed above or other measures) into “high” and “low” groups, such that the high group had values above the median and the low group had values less than or equal to the median.
In addition, logistic regression models were fit for response measures ACR20 and PASI75, to generate the odds ratio of each of the deucravacitinib treatment arms versus placebo, in BD2-high and BD2-low groups. The following logistic regression models were used: • For ACR20 response status: ACR20 (Y/N)=treatment arm+BD2 group+treatment arm*BD2 group+TNF-inhibitor use+baseline weight (continuous). • For PASI75 response status: PASI75 (Y/N)=treatment arm+BD2 group+treatment arm*BD2 group+TNF-inhibitor use+baseline weight (continuous). […]

[2H]C([2H])([2H])NC(=O)c1nnc(NC(=O)C2CC2)cc1Nc1cccc(-c2ncn(C)n2)c1OC [deucravacitinib, 6-(cyclopropanecarboxamido)-4-((2-methoxy-3-(1-methyl-1H-1,2,4-triazol-3-yl)phenyl)amino)-N-(methyl-d3)pyridazine-3-carboxamide]
Odds Ratio, PASI75 response status (CRP-high-PASI-high, 12 mg QD vs placebo): 17.226 | Odds Ratio, PASI75 response status (CRP-high-PASI-low, 6 mg QD vs placebo): 0.710 | Odds Ratio, PASI75 response status (CRP-high-PASI-low, 12 mg QD vs placebo): 5.115 | Odds Ratio, PASI75 response status (CRP-high, 6 mg QD vs placebo, adjusted for baseline PASI score): 3.82 | Odds Ratio, PASI75 response status (CRP-high, 12 mg QD vs placebo, adjusted for baseline PASI score): 12.05 | Odds Ratio, PASI75 response status (CRP-low-PASI-high, 6 mg QD vs placebo): 2.470 | Odds Ratio, PASI75 response status (CRP-low-PASI-high, 12 mg QD vs placebo): 16.368 | Odds Ratio, PASI75 response status (CRP-low-PASI-low, 6 mg QD vs placebo): 1.866 | Odds Ratio, PASI75 response status (CRP-low-PASI-low, 12 mg QD vs placebo): 1.197 | Odds Ratio, PASI75 response status (CRP-low, 6 mg QD vs placebo, adjusted for baseline PASI score): 2.29 | Odds Ratio, PASI75 response status (CRP-low, 12 mg QD vs placebo, adjusted for baseline PASI score): 3.79 | Odds Ratio for PASI75 response (IL-17A high (baseline above median 0.575 ng/L), 6 mg QD vs placebo): 12.643 | Odds Ratio for PASI75 response (IL-17A high (baseline above median 0.575 ng/L), 12 mg QD vs placebo): 20.916 | PASI75 response rate at week 16 (IL-17A high group, 6 mg QD and 12 mg QD vs placebo (FIG. 21)): higher in both 6 mg QD and 12 mg QD treatment arms compared to placebo | Odds Ratio, PASI75 response status (IL-17A high-PASI high, 6 mg QD vs placebo): 12.355 | Odds Ratio, PASI75 response status (IL-17A high-PASI high, 12 mg QD vs placebo): 15.937 | Odds Ratio, PASI75 response status (IL-17A high-PASI low, 6 mg QD vs placebo): 13.247 | Odds Ratio, PASI75 response status (IL-17A high-PASI low, 12 mg QD vs placebo): 30.955 | Odds Ratio, PASI75 response status (IL-17A high, 6 mg QD vs placebo, adjusted for baseline PASI score): 13.452 | Odds Ratio, PASI75 response status (IL-17A high, 12 mg QD vs placebo, adjusted for baseline PASI score): 23.963 | Odds Ratio for PASI75 response (IL-17A high, treatment arms combined vs placebo): 15.763 | Odds Ratio, PASI75 response status (IL-17A low-PASI high, 6 mg QD vs placebo): 3.005 | Odds Ratio, PASI75 response status (IL-17A low-PASI high, 12 mg QD vs placebo): 20.919 | Odds Ratio, PASI75 response status (IL-17A low-PASI low, 6 mg QD vs placebo): 0.188 | Odds Ratio, PASI75 response status (IL-17A low-PASI low, 12 mg QD vs placebo): 0.415 | Odds Ratio, PASI75 response status (IL-17A low, 6 mg QD vs placebo, adjusted for baseline PASI score): 0.588 | Odds Ratio for PASI75 response (IL-17A low, 6 mg QD vs placebo): 0.553 | Odds Ratio, PASI75 response status (IL-17A low, 12 mg QD vs placebo, adjusted for baseline PASI score): 1.812 | Odds Ratio for PASI75 response (IL-17A low, 12 mg QD vs placebo): 1.730 | Odds Ratio for PASI75 response (IL-17A low, treatment arms combined vs placebo): 1.014 | PASI75 response rate at week 16 (IL-19-high group, 6 mg QD and 12 mg QD vs placebo arm (FIG. 14)): higher in both 6 mg QD and 12 mg QD treatment arms compared to the response rate in the placebo arm | Odds Ratio (OR) for PASI75 response (IL-19-low-PASI high, 6 mg QD vs placebo): 1.244 | Odds Ratio (OR) for PASI75 response (IL-19-low-PASI high, 12 mg QD vs placebo): 2.845 | Odds Ratio (OR) for PASI75 response (IL-19-low-PASI low, 6 mg QD vs placebo): 0.321 | Odds Ratio (OR) for PASI75 response (IL-19-low-PASI low, 12 mg QD vs placebo): 0.380 | Odds Ratio (OR) for PASI75 response (IL-19 low, 6 mg QD vs placebo): 0.443 | Odds Ratio (OR) for PASI75 response (IL-19 low, 12 mg QD vs placebo): 0.842 | Odds Ratio for PASI75 response (IL-19 low, treatment arms combined vs placebo): 6.284 | Interaction Term for PASI75 response (ratio of odds ratios) (adjusted for baseline PASI score, 6 mg QD vs placebo: BD2-high versus BD2-low): 13.742 | Interaction Term for PASI75 response (ratio of odds ratios) (adjusted for baseline PASI score, 12 mg QD vs placebo: BD2-high versus BD2-low): 19.455 | Odds Ratio for PASI75 response (adjusted for baseline PASI score, All patients, 6 mg QD vs placebo): 3.052 | Odds Ratio for PASI75 response (adjusted for baseline PASI score, All patients, 12 mg QD vs placebo): 6.494 | Odds Ratio for PASI75 response (adjusted for baseline PASI score, BD2-high, 6 mg QD vs placebo): 13.559 | Odds Ratio for PASI75 response (adjusted for baseline PASI score, BD2-high, 12 mg QD vs placebo): 34.074 | Odds Ratio for PASI75 response (adjusted for baseline PASI score, BD2-low, 6 mg QD vs placebo): 0.987 | Odds Ratio for PASI75 response (adjusted for baseline PASI score, BD2-low, 12 mg QD vs placebo): 1.751 | Odds Ratio (OR) for PASI75 response (adjusted for baseline PASI score, IL-19 low, 6 mg QD vs placebo): 0.476 | Odds Ratio (OR) for PASI75 response (adjusted for baseline PASI score, IL-19 low, 12 mg QD vs placebo): 0.896 | PASI75 response rate at week 16 (both CRP-high and CRP-low groups, 6 mg, 12 mg, placebo arms (FIG. 38)): the response rate was higher in the 6 mg deucravacitinib treatment arm than in the placebo arm, and the response rate was even higher in the 12 mg deucravacitinib treatment arm than in the 6 mg treatment arm | Interaction Term for PASI75 response (ratio of odds ratios) (treatment arms combined vs placebo: BD2 high versus BD2 low): 12.100 | Interaction Term: treatment arm*CRP group, PASI75 (treatment arms combined vs placebo: CRP high versus CRP low): 1.903 | Interaction Term for PASI75 response (ratio of odds ratios) (treatment arms combined vs placebo: IL-17A high versus IL-17A low): 15.541
